Results on 1 compound are retold here after BindingDB's records for doi:10.1074/jbc.M113.507525 (Western University, 2013).

The structures appear in SMILES notation. A value given as a limit tells only on which side of the number the result lay.

Holding throughout (assay): SelectScreen Biochemical Kinase Assay
In test [1] the target is Phosphatidylinositol 4-phosphate 5-kinase type-1 beta (Mus musculus, UniProt P70181). Here is the method:
(§1) Biochemical in vitro lipid kinase assays were performed by the SelectScreen biochemical kinase assay service (Invitrogen Ltd.). A stock solution of GS-9820 was prepared in DMSO at a concentration of 10 mM. Ten-point kinase inhibitory activities were measured over a concentration range (5 to 10^4 nM) with ATP at a concentration consistent with the Km of each of the enzymes.

In test [2] the target is Phosphatidylinositol 4,5-bisphosphate 3-kinase catalytic subunit alpha isoform (Mus musculus, UniProt P42337). The procedure:
as §1

The target in test [3] is Phosphatidylinositol 4,5-bisphosphate 3-kinase catalytic subunit beta isoform (Mus musculus, UniProt Q8BTI9). Here is the method:
as §1

Test [4] has as its target DNA-dependent protein kinase catalytic subunit (Mus musculus, UniProt P97313). Here is the method: as §1
The target of test [5] is Phosphatidylinositol 4-phosphate 5-kinase type-1 alpha (Mus musculus, UniProt P70182). Here is the method: as §1
Sequence of Phosphatidylinositol 4-phosphate 5-kinase type-1 alpha (P70182 whole entry, canonical isoform): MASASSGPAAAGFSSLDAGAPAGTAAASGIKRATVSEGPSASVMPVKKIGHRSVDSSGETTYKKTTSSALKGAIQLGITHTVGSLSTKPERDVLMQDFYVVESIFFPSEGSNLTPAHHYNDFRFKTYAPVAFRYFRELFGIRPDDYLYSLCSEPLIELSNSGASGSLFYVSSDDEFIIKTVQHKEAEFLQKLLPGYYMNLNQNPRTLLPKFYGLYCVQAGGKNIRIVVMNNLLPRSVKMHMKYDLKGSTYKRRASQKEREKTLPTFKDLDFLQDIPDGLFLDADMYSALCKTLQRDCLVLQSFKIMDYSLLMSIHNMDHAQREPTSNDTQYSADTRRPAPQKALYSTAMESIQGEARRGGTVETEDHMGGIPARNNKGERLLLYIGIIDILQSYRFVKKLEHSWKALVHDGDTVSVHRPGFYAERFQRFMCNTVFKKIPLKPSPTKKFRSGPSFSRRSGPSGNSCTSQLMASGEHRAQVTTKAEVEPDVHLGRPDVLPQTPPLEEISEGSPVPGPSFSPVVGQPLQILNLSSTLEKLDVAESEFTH
Test [6] has as its target T1, Phosphatidylinositol 4,5-bisphosphate 3-kinase catalytic subunit delta isoform (Mus musculus, UniProt O35904).
T1 sequence (O35904 whole entry): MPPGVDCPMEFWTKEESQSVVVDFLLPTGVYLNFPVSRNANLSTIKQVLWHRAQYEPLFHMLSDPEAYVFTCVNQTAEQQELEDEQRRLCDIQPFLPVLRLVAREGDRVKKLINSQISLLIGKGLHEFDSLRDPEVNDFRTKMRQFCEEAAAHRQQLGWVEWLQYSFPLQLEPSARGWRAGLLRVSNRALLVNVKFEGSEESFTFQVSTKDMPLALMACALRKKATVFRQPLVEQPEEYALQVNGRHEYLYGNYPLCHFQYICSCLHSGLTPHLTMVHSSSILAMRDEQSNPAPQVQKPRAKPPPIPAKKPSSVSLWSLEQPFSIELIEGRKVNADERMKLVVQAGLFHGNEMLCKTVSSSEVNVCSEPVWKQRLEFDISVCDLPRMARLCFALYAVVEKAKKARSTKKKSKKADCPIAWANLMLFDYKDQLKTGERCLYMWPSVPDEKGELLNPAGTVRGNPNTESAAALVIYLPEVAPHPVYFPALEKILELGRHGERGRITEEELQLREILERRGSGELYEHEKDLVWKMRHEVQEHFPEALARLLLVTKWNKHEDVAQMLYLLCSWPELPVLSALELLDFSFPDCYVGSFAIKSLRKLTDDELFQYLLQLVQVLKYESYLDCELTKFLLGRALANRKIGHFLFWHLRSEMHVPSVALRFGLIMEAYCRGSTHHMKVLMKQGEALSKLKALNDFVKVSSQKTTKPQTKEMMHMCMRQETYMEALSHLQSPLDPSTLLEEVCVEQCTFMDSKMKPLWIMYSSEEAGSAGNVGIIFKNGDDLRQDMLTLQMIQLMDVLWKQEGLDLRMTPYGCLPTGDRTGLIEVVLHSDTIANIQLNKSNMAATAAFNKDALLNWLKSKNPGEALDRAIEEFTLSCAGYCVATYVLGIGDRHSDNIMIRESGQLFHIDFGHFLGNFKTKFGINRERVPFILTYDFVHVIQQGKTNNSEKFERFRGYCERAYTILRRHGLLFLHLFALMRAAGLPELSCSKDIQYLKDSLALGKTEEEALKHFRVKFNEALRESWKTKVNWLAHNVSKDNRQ
Here is the method: as §1

The target in test [7] is Phosphatidylinositol 4,5-bisphosphate 3-kinase catalytic subunit gamma isoform (Mus musculus, UniProt Q9JHG7). The procedure: as §1
Sequence of Phosphatidylinositol 4,5-bisphosphate 3-kinase catalytic subunit gamma isoform (Q9JHG7 whole entry, canonical isoform): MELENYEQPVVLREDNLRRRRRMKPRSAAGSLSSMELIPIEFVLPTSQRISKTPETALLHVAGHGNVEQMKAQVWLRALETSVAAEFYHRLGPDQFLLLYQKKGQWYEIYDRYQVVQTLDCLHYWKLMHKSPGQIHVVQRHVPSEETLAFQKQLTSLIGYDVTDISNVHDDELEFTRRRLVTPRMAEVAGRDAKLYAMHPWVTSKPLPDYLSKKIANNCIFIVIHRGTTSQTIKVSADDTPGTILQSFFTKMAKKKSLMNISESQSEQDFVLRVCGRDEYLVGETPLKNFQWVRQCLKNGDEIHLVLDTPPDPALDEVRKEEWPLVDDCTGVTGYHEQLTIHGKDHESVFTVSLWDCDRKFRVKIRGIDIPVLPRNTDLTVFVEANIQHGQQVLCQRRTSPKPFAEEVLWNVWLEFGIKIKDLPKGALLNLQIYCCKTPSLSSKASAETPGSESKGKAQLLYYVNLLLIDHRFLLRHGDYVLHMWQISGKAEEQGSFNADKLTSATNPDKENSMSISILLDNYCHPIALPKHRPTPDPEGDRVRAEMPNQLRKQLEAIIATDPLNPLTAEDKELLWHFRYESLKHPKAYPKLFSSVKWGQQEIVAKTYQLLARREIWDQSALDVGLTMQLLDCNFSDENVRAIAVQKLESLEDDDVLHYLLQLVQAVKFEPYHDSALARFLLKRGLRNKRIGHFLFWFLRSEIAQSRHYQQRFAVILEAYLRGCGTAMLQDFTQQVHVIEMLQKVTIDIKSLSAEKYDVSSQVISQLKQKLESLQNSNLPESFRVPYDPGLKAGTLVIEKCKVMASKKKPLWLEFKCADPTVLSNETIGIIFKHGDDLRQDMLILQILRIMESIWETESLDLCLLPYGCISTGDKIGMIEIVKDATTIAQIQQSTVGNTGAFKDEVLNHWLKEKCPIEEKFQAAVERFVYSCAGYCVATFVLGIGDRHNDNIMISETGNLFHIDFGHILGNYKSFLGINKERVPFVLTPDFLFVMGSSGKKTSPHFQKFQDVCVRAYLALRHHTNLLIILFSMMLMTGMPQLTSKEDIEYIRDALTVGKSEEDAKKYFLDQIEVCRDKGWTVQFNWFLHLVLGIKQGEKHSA

Sequence of Phosphatidylinositol 4,5-bisphosphate 3-kinase catalytic subunit alpha isoform (P42337 whole entry, canonical isoform): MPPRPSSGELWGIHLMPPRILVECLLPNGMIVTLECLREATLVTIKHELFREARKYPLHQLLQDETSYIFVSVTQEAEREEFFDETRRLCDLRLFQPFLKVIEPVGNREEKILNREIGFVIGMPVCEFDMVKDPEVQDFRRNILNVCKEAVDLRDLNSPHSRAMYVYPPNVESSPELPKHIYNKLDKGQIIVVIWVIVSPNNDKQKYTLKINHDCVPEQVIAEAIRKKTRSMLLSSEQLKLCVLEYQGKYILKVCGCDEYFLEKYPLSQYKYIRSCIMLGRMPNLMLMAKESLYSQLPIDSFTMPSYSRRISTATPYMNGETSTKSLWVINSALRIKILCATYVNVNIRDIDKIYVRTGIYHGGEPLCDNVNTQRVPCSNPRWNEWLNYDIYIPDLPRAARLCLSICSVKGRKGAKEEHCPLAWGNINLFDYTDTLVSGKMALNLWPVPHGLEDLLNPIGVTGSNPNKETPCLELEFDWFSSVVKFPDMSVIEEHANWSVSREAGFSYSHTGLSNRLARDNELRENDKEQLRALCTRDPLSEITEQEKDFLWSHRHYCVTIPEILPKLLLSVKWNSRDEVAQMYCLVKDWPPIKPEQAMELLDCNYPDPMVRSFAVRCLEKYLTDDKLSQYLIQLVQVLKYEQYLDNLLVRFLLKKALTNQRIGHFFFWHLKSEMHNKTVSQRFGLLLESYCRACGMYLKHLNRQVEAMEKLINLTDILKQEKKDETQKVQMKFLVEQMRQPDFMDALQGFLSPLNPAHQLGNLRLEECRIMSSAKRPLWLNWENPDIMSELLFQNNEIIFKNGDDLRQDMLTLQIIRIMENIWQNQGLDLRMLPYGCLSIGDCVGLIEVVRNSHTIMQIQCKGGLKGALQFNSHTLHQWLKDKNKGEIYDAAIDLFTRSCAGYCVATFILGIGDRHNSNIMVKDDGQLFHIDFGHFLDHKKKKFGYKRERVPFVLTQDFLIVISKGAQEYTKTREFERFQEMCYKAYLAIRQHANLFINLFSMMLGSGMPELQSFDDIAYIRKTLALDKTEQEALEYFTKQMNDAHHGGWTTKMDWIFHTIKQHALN
Sequence of Phosphatidylinositol 4-phosphate 5-kinase type-1 beta (P70181 whole entry): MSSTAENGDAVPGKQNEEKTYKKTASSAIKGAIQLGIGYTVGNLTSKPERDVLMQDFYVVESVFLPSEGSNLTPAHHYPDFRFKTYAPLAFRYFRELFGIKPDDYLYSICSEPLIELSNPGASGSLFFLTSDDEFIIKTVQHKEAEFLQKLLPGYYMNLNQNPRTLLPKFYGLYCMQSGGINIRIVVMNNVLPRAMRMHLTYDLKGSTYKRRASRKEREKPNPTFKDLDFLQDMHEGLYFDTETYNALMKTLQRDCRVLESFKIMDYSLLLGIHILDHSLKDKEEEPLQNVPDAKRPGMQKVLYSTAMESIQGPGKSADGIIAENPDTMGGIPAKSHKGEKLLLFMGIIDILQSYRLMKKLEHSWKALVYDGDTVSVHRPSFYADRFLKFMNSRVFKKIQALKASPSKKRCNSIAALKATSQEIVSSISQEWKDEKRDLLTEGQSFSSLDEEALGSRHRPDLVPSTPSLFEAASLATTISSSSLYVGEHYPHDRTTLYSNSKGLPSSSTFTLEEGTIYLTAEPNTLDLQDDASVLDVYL
Sequence of Phosphatidylinositol 4,5-bisphosphate 3-kinase catalytic subunit beta isoform (Q8BTI9 whole entry, canonical isoform): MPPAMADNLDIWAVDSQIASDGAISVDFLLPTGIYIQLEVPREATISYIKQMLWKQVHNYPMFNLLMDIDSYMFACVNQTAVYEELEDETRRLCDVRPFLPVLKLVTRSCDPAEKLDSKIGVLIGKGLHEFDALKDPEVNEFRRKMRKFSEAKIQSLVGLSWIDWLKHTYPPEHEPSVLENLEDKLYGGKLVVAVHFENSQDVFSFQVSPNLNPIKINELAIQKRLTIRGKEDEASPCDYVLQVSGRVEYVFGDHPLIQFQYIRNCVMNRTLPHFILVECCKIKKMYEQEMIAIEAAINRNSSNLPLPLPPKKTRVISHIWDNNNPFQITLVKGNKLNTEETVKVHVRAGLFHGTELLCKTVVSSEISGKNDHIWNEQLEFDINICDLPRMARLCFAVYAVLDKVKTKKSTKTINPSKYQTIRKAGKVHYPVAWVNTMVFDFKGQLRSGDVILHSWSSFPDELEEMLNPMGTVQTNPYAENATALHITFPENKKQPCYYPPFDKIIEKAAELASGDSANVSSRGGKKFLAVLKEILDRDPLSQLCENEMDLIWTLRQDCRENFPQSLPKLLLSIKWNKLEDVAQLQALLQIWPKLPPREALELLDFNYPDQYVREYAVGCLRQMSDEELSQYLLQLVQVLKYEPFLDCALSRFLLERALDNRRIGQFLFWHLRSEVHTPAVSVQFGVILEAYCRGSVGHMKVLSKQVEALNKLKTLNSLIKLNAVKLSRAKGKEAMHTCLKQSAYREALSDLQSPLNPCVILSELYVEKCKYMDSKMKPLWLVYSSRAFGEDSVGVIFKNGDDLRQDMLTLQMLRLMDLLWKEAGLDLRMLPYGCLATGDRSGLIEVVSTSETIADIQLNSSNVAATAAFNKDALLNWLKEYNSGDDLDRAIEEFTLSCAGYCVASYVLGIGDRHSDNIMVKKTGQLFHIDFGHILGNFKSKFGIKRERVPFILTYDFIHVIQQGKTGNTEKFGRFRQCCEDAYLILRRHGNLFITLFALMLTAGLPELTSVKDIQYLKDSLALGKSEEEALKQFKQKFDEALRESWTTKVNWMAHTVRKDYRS

On to `C[C@H](Nc1ncnc2[nH]cnc12)c1nc2ccc(F)cc2c(=O)n1-c1ccccc1` [GS-9820], for which the IC50 in test [1] was greater than 10 µM; in test [2], 5.44 µM; in test [3], 3.38 µM; in test [4], 18.7 µM; in test [5], greater than 10 µM; in test [6] it was 0.0127 µM. In test [7], this compound yielded an IC50 of 1.39 µM.

For orientation: IC50 means the concentration that gives 50% inhibition. Read a high IC50 as a need for much substance.
